In US9340590B2 (priority 2011, dated 2016) one finds IC50 data, which are given here for seven molecules.

What all share (test): cell-based
The target of one experiment is hNav1.7 (Homo sapiens, UniProt Q15858). The class given is cell-based. Conditions: IonWorks Quattro, use, […], read-out: IWQ Use Nav1.7.
The target in the next experiment is hNav1.5 (Homo sapiens, UniProt Q14524). Conditions: IonWorks Quattro, use, […], read-out: IWQ Use Nav1.5.
For a further experiment, the target named is hNav1.3 (Homo sapiens, UniProt Q9NY46). Particulars: IonWorks Quattro, use, […], read-out: IWQ Use Nav1.3. Background: The patch-clamp technique gives a direct electrical read-out from membranes.

Each structure is given as a SMILES string. Like-named read-outs stand apart in the source and are kept apart here. Positions of bridges follow the written chain, without caps; N, C: chain ends. Non-standard residues stand in square brackets, D forms with d. Residues, ends and D or L forms follow the SMILES beside them. Phe(4-COOH) = N[C@@H](Cc1ccc(C(=O)O)cc1)C(=O)O; NMeW = CN[C@@H](Cc1c[nH]c2ccccc12)C(=O)O; NMeF = CN[C@@H](Cc1ccccc1)C(=O)O; 2Pal = N[C@@H](Cc1ccccn1)C(=O)O; Cha = N[C@@H](CC1CCCCC1)C(=O)O

Sequence of hNav1.5 (Q14524 whole entry, looked up): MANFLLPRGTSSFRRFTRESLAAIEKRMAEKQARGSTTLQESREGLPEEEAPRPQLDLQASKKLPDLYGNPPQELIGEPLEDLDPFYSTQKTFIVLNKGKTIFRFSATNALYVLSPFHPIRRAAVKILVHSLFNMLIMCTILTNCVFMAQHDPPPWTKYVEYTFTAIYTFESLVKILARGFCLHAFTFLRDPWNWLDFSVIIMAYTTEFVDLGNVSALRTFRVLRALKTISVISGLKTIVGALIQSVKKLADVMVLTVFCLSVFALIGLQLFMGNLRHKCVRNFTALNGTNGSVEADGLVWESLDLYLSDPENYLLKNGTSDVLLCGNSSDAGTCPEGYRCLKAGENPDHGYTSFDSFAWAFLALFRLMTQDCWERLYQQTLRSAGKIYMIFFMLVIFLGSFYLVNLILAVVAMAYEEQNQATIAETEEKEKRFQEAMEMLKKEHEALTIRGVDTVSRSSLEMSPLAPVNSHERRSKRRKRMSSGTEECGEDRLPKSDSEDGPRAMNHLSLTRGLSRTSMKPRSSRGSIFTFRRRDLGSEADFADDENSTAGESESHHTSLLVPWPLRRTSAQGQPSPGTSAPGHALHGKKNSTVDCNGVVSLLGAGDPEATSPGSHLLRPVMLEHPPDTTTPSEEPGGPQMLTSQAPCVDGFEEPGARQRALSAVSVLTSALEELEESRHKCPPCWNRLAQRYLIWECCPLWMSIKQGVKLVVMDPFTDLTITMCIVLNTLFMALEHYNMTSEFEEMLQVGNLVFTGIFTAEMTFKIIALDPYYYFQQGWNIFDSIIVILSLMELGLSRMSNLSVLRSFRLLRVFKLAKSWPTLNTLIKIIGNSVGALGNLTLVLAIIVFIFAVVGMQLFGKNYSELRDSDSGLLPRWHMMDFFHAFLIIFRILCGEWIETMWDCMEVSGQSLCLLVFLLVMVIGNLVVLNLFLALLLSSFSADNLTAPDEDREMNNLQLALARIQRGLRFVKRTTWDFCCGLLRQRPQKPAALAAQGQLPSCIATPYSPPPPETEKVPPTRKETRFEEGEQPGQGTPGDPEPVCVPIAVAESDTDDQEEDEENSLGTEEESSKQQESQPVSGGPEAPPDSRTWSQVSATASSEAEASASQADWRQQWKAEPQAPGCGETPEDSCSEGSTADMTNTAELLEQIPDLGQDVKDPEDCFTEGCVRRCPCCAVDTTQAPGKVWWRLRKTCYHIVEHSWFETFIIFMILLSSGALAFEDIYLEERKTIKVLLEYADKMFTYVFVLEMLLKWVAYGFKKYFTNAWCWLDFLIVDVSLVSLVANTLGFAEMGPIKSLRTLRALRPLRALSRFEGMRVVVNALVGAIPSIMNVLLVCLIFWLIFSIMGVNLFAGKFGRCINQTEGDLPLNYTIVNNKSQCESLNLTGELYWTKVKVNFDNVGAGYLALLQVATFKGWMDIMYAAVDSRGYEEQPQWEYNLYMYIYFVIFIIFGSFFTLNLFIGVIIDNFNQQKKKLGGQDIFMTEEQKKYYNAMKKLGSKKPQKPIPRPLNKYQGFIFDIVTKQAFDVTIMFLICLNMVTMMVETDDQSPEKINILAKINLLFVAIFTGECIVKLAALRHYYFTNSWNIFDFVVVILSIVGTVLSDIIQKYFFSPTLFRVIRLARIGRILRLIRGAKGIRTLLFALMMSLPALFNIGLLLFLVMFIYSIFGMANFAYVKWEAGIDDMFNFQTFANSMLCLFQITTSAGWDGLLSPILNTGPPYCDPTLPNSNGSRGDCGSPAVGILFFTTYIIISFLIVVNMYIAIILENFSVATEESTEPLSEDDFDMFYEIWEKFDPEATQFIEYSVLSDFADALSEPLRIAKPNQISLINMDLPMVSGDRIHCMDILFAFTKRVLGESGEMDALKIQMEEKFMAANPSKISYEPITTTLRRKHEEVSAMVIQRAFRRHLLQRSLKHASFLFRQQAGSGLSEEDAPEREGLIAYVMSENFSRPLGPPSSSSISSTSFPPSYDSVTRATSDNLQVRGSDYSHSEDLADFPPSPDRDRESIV
Sequence of hNav1.3 (Q9NY46 whole entry, looked up): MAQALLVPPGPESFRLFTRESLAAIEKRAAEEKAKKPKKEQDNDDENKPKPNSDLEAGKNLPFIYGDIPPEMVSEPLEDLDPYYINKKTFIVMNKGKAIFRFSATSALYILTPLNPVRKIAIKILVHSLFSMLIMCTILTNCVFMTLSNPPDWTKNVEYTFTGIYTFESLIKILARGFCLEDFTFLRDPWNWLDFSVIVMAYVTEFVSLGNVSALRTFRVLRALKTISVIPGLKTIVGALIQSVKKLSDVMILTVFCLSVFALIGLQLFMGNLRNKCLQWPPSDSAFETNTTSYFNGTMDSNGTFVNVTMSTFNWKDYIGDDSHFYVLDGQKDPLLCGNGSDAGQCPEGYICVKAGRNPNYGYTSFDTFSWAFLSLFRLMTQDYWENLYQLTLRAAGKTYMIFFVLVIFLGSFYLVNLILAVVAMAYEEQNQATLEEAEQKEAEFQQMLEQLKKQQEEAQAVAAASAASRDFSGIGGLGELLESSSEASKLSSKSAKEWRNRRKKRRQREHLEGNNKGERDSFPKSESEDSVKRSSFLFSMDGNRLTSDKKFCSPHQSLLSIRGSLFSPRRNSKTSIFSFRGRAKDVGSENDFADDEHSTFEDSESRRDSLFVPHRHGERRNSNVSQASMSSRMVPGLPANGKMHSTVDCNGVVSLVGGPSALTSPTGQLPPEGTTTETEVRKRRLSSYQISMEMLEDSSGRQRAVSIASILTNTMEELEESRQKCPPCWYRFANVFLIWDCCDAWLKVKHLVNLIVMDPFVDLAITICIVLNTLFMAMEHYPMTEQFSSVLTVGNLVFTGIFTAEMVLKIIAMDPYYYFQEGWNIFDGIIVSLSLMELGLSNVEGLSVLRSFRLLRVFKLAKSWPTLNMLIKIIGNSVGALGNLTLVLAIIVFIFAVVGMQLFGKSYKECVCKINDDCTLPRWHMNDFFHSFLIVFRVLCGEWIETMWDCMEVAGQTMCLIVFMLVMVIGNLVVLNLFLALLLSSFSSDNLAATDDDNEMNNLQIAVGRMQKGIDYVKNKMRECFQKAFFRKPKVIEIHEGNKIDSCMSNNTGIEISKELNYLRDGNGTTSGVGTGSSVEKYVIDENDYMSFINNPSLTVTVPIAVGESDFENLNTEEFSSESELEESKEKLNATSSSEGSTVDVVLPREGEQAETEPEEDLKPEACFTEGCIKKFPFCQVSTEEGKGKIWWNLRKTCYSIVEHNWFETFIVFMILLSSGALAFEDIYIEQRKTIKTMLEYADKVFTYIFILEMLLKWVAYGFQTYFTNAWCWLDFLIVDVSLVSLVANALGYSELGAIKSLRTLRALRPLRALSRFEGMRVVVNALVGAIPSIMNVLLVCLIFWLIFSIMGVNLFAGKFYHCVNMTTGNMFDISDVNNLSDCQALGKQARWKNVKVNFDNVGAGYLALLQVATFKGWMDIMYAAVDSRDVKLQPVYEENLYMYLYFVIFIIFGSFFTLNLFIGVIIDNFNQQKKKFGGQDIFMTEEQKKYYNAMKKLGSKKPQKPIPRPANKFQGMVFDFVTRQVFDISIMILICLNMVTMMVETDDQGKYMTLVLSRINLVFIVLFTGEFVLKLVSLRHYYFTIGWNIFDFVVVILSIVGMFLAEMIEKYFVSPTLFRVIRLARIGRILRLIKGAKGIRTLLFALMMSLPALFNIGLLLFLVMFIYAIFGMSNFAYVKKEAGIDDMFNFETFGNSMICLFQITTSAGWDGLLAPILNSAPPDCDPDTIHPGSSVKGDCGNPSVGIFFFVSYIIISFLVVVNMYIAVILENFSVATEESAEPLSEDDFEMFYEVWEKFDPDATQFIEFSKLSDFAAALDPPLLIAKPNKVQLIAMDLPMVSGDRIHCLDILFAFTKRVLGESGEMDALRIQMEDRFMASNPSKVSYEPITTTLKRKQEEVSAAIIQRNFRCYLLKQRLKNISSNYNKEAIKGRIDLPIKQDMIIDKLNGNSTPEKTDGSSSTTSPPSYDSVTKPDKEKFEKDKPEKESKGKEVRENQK

`CC[C@H](C)[C@@H]1NC(=O)[C@@H]2CSSC[C@@H]3NC(=O)[C@H](C(C)C)NC(=O)[C@H](CC(C)C)NC(=O)[C@H](CC(N)=O)NC(=O)[C@@H]4CCCN4C(=O)[C@H](CCCNC(=N)N)NC(=O)[C@H](CSSC[C@H](NC(=O)[C@@H](N)CC(=O)O)C(=O)N[C@@H](CC(C)C)C(=O)NCC(=O)N[C@@H](Cc4ccccc4)C(=O)N[C@@H](CCSC)C(=O)N[C@@H](CCCNC(=N)N)C(=O)N[C@@H](CCCCN)C(=O)N2)NC(=O)[C@H](CSSC[C@@H](C(=O)N[C@@H](CCCCN)C(=O)N[C@@H](Cc2ccccn2)C(=O)N[C@H](C(=O)N[C@@H](Cc2ccccc2)C(N)=O)C(C)C)NC(=O)[C@H](Cc2c[nH]c4ccccc24)NC(=O)[C@H](CCCCN)NC(=O)[C@H](Cc2c[nH]cn2)NC(=O)[C@H]([C@@H](C)O)NC(=O)[C@H](CCCNC(=N)N)NC(=O)[C@H](CO)NC3=O)NC(=O)[C@H](CCCCN)NC(=O)[C@H](CC(=O)O)NC(=O)[C@H](CC(N)=O)NC(=O)[C@H](CC(=O)O)NC(=O)[C@@H]2CCCN2C1=O` [compound 384] (H-DCLGFMRKCIPDNDKCCRPNLVCSRTHKWCK[2Pal]VF-NH2; disulfide 2-17, 9-23, 16-30): the results for the IC50 at hNav1.7 (Table 25), at hNav1.5 (Table 25) and on hNav1.3 (Table 25) were 810 nM, 7650 nM and 660 nM, respectively.
`CC[C@H](C)[C@@H]1NC(=O)[C@@H]2CSSC[C@@H]3NC(=O)[C@H](C(C)C)NC(=O)[C@H](CC(C)C)NC(=O)[C@H](CC(N)=O)NC(=O)[C@@H]4CCCN4C(=O)[C@H](CCCNC(=N)N)NC(=O)[C@H](CSSC[C@H](NC(=O)[C@@H](N)CC(=O)O)C(=O)N[C@@H](CC(C)C)C(=O)NCC(=O)N[C@@H](Cc4ccccc4)C(=O)N[C@@H](CCSC)C(=O)N[C@@H](CCCNC(=N)N)C(=O)N[C@@H](CCCCN)C(=O)N2)NC(=O)[C@H](CSSC[C@@H](C(=O)N[C@@H](CCCCN)C(=O)N[C@@H](Cc2ccc(C(=O)O)cc2)C(=O)N[C@H](C(=O)N[C@@H](Cc2ccccc2)C(N)=O)C(C)C)NC(=O)[C@H](Cc2c[nH]c4ccccc24)NC(=O)[C@H](CCCCN)NC(=O)[C@H](Cc2c[nH]cn2)NC(=O)[C@H]([C@@H](C)O)NC(=O)[C@H](CCCNC(=N)N)NC(=O)[C@H](CO)NC3=O)NC(=O)[C@H](CCCCN)NC(=O)[C@H](CC(=O)O)NC(=O)[C@H](CC(N)=O)NC(=O)[C@H](CC(=O)O)NC(=O)[C@@H]2CCCN2C1=O` [compound 385] (H-DCLGFMRKCIPDNDKCCRPNLVCSRTHKWCK[Phe(4-COOH)]VF-NH2; disulfide 2-17, 9-23, 16-30): the figures for the IC50 on hNav1.7 (Table 25), at hNav1.5 (Table 25) and at hNav1.3 (Table 25) were 11400 nM, 7700 nM and 4050 nM, respectively.
On to `CC[C@H](C)[C@@H]1NC(=O)[C@@H]2CSSC[C@@H]3NC(=O)[C@H](C(C)C)NC(=O)[C@H](CC(C)C)NC(=O)[C@H](CC(N)=O)NC(=O)[C@@H]4CCCN4C(=O)[C@H](CCCNC(=N)N)NC(=O)[C@H](CSSC[C@H](NC(=O)[C@@H](N)CC(=O)O)C(=O)N[C@@H](CC(C)C)C(=O)NCC(=O)N[C@@H](Cc4ccccc4)C(=O)N[C@@H](CCSC)C(=O)N[C@@H](CCCNC(=N)N)C(=O)N[C@@H](CCCCN)C(=O)N2)NC(=O)[C@H](CSSC[C@@H](C(=O)N[C@@H](CCCCN)C(=O)N[C@@H](Cc2ccc(O)cc2)C(=O)N[C@@H](CC2CCCCC2)C(=O)N[C@@H](Cc2ccccc2)C(N)=O)NC(=O)[C@H](Cc2c[nH]c4ccccc24)NC(=O)[C@H](CCCCN)NC(=O)[C@H](Cc2c[nH]cn2)NC(=O)[C@H]([C@@H](C)O)NC(=O)[C@H](CCCNC(=N)N)NC(=O)[C@H](CO)NC3=O)NC(=O)[C@H](CCCCN)NC(=O)[C@H](CC(=O)O)NC(=O)[C@H](CC(N)=O)NC(=O)[C@H](CC(=O)O)NC(=O)[C@@H]2CCCN2C1=O` [compound 386] (H-DCLGFMRKCIPDNDKCCRPNLVCSRTHKWCKY[Cha]F-NH2; disulfide 2-17, 9-23, 16-30), for which the IC50 is 70 nM at hNav1.7 (Table 26), 12200 nM at hNav1.5 (Table 26) and 70 nM at hNav1.3 (Table 26).
`CC[C@H](C)[C@@H]1NC(=O)[C@@H]2CSSC[C@@H]3NC(=O)[C@H](C(C)C)NC(=O)[C@H](CC(C)C)NC(=O)[C@H](CC(N)=O)NC(=O)[C@@H]4CCCN4C(=O)[C@H](CCCNC(=N)N)NC(=O)[C@H](CSSC[C@H](NC(=O)[C@@H](N)CC(=O)O)C(=O)N[C@@H](CC(C)C)C(=O)NCC(=O)N[C@@H](Cc4ccccc4)C(=O)N[C@@H](CCSC)C(=O)N[C@@H](CCCNC(=N)N)C(=O)N[C@@H](CCCCN)C(=O)N2)NC(=O)[C@H](CSSC[C@@H](C(=O)N[C@@H](CCCCN)C(=O)N[C@@H](Cc2ccc(O)cc2)C(=O)N(C)[C@@H](Cc2ccccc2)C(=O)N[C@@H](Cc2ccccc2)C(N)=O)NC(=O)[C@H](Cc2c[nH]c4ccccc24)NC(=O)[C@H](CCCCN)NC(=O)[C@H](Cc2c[nH]cn2)NC(=O)[C@H]([C@@H](C)O)NC(=O)[C@H](CCCNC(=N)N)NC(=O)[C@H](CO)NC3=O)NC(=O)[C@H](CCCCN)NC(=O)[C@H](CC(=O)O)NC(=O)[C@H](CC(N)=O)NC(=O)[C@H](CC(=O)O)NC(=O)[C@@H]2CCCN2C1=O` [compound 388] (H-DCLGFMRKCIPDNDKCCRPNLVCSRTHKWCKY[NMeF]F-NH2; disulfide 2-17, 9-23, 16-30): the IC50 is 1280 nM at hNav1.7 (Table 26), more than 5000 nM at hNav1.5 (Table 26) and 1090 nM on hNav1.3 (Table 26).
In the same order, the values of `CC[C@H](C)[C@@H]1NC(=O)[C@@H]2CSSC[C@@H]3NC(=O)[C@H](C(C)C)NC(=O)[C@H](CC(C)C)NC(=O)[C@H](CC(N)=O)NC(=O)[C@@H]4CCCN4C(=O)[C@H](CCCNC(=N)N)NC(=O)[C@H](CSSC[C@H](NC(=O)[C@@H](N)CC(=O)O)C(=O)N[C@@H](CC(C)C)C(=O)NCC(=O)N[C@@H](Cc4ccccc4)C(=O)N[C@@H](CCSC)C(=O)N[C@@H](CCCNC(=N)N)C(=O)N[C@@H](CCCCN)C(=O)N2)NC(=O)[C@H](CSSC[C@@H](C(=O)N[C@@H](CCCCN)C(=O)N[C@@H](Cc2ccc(O)cc2)C(=O)N(C)[C@@H](Cc2c[nH]c4ccccc24)C(=O)N[C@@H](Cc2ccccc2)C(N)=O)NC(=O)[C@H](Cc2c[nH]c4ccccc24)NC(=O)[C@H](CCCCN)NC(=O)[C@H](Cc2c[nH]cn2)NC(=O)[C@H]([C@@H](C)O)NC(=O)[C@H](CCCNC(=N)N)NC(=O)[C@H](CO)NC3=O)NC(=O)[C@H](CCCCN)NC(=O)[C@H](CC(=O)O)NC(=O)[C@H](CC(N)=O)NC(=O)[C@H](CC(=O)O)NC(=O)[C@@H]2CCCN2C1=O` [compound 389] (H-DCLGFMRKCIPDNDKCCRPNLVCSRTHKWCKY[NMeW]F-NH2; disulfide 2-17, 9-23, 16-30) are 350 nM, more than 5000 nM and 290 nM.
For `CC[C@H](C)[C@@H]1NC(=O)[C@@H]2CSSC[C@@H]3NC(=O)[C@H](C(C)C)NC(=O)[C@H](CC(C)C)NC(=O)[C@H](CC(N)=O)NC(=O)[C@@H]4CCCN4C(=O)[C@H](CCCNC(=N)N)NC(=O)[C@H](CSSC[C@H](NC(=O)[C@@H](N)CC(=O)O)C(=O)N[C@@H](CC(C)C)C(=O)NCC(=O)N[C@@H](Cc4ccccc4)C(=O)N[C@@H](CCSC)C(=O)N[C@@H](CCCNC(=N)N)C(=O)N[C@@H](CCCCN)C(=O)N2)NC(=O)[C@H](CSSC[C@@H](C(=O)N[C@@H](CCCCN)C(=O)N[C@@H](Cc2ccc(O)cc2)C(=O)N[C@@H](Cc2ccccc2)C(=O)N[C@@H](Cc2ccccc2)C(N)=O)NC(=O)[C@H](Cc2c[nH]c4ccccc24)NC(=O)[C@H](CCCCN)NC(=O)[C@H](Cc2c[nH]cn2)NC(=O)[C@H]([C@@H](C)O)NC(=O)[C@H](CCCNC(=N)N)NC(=O)[C@H](CO)NC3=O)NC(=O)[C@H](CCCCN)NC(=O)[C@H](CC(=O)O)NC(=O)[C@H](CC(N)=O)NC(=O)[C@H](CC(=O)O)NC(=O)[C@@H]2CCCN2C1=O` [compound 390] (H-DCLGFMRKCIPDNDKCCRPNLVCSRTHKWCKYFF-NH2; disulfide 2-17, 9-23, 16-30), the IC50 on hNav1.7 (Table 26) is 60 nM; on hNav1.5 (Table 26), 8660 nM; at hNav1.3 (Table 26), 40 nM.
In the same order, the values of `CC[C@H](C)[C@@H]1NC(=O)[C@@H]2CSSC[C@@H]3NC(=O)[C@H](C(C)C)NC(=O)[C@H](CC(C)C)NC(=O)[C@H](CC(N)=O)NC(=O)[C@@H]4CCCN4C(=O)[C@H](CCCNC(=N)N)NC(=O)[C@H](CSSC[C@H](NC(=O)[C@@H](N)CC(=O)O)C(=O)N[C@@H](CC(C)C)C(=O)NCC(=O)N[C@@H](Cc4ccccc4)C(=O)N[C@@H](CCSC)C(=O)N[C@@H](CCCNC(=N)N)C(=O)N[C@@H](CCCCN)C(=O)N2)NC(=O)[C@H](CSSC[C@@H](C(=O)N[C@@H](CCCCN)C(=O)N[C@@H](Cc2ccc(O)cc2)C(=O)N[C@@H](CCSC)C(=O)N[C@@H](Cc2ccccc2)C(N)=O)NC(=O)[C@H](Cc2c[nH]c4ccccc24)NC(=O)[C@H](CCCCN)NC(=O)[C@H](Cc2c[nH]cn2)NC(=O)[C@H]([C@@H](C)O)NC(=O)[C@H](CCCNC(=N)N)NC(=O)[C@H](CO)NC3=O)NC(=O)[C@H](CCCCN)NC(=O)[C@H](CC(=O)O)NC(=O)[C@H](CC(N)=O)NC(=O)[C@H](CC(=O)O)NC(=O)[C@@H]2CCCN2C1=O` [compound 391] (H-DCLGFMRKCIPDNDKCCRPNLVCSRTHKWCKYMF-NH2; disulfide 2-17, 9-23, 16-30) are 70 nM, 15100 nM and 80 nM.
